Counter-ions that a name gives are not always drawn.
Columns and labels:
[1] = system: patient with perennial allergic rhinitis; conditions: for incidence of sedation: day 4 of treatment
[2] = system: patients with allergic rhinitis; assay: database follow-up of similar patients placed on CM; assay type: in vivo, human; conditions: year long follow-up
Experimental: It is determined that they are a candidate for the individual patient formulary management control system. They are considered a candidate because there are similar patients, e.g. 50, in the database, and 40 of them are placed on CM rather than CL based upon the outcome of single-patient drug trials. […] If CL is found to be more acceptable considering the safety, effectiveness and desirability data of the individual patient questionnaire, the co-pay is the same low rate as for CM.

individual patient = assay: SPAS single-patient abuse potential test (liking score); conditions: for difference of liking score vs placebo: drug minus placebo; for liking score: on drug, codeine: person, diazepam: person, nicotine: person, on average
Experimental: Single-patient drug kits can be designed to test for “liking scores,” “abuse potential scores,” and patient's desire to re-use the test article compared to placebo and positive controls.
In this example, the abuse potential of the narcotic analgesic codeine is tested. A single-patient trial is conducted in a patient for whom treatment with codeine is deemed appropriate. The patient receives a SPAS test kit containing codeine, an alternative drug, e.g., ibuprofen and a questionnaire designed to elicit the liking score, desirability to re-use test article and abuse potential of the patient to codeine.
In another example, in follow-up to the test above, the clinician compares diazepam to secobarbital in the same patient.

[3] = system: previously tested patients; assay: follow-up of previously tested similar patients for addiction / smoking; conditions: for level of addiction on follow-up of similar patients: human, in vivo
[4] = system: patients with the same disorder (hyperactive child); assay: pooled SPAS database and follow-up of patients continued on methylphenidate 40 mg daily; assay type: in vivo, human
Experimental: All results obtained from the data are compared against the results provided by data amassed from a pool of about 200 patients with the same disorder. If, of these 200 patients, 55 experience encouraging results (along with the current patient) they are continued on 40 mg daily treatment. If, of these 55 patients, 5 are lost to follow-up, with 50 remaining for prospective evaluation, the physician continues the patient on 40 mg methylphenidate daily based solely on the isolated SPAS single-patient drug trial results. The physician then reviews the pooled data on the 50 patients. This will be done to understand under what circumstances this individual patient is likely to continue to show benefit from methylphenidate 40 mg treatment, and what conditions lead to treatment failure.
If for example, the pool of 50 patients who continue treatment have the following scores following the original SPAS testing:
All 50 patients are followed up by telephone interview monthly for nine months or more, and outcomes are prospectively documented.

hyperactive child = assay: single-patient drug trial of methylphenidate vs placebo (SPAS kit, parent/school questionnaires); assay type: in vivo, human
Experimental: The usefulness of methylphenidate (Ritalin) treatment in a hyperactive child (Minimum Brain Dysfunction or Attention Deficit Disorder) is evaluated.
Consists of instructions, “calendar” packaging for drug and a substantially identical looking placebo to assure appropriate dosing and monitoring of compliance, questionnaires and assessment forms and instructions. Completed forms are sent to a neutral observer who has previously assigned the randomized, multiple-crossover schedule of drug and placebo periods. Only the observer has access to when active drug and placebo are taken and only the observer analyzes the data (exception: open-label or single-blind trials). Results are mailed to the physician and, in this case, parent for use in evaluating the usefulness of the therapy. The physician and parent are contacted, e.g., every three months to provide data on therapies utilized, and perceived outcome, until the condition is resolved. The data is also added to a post-marketing surveillance database for use in evaluating future individual study results, and for access by drug companies, regulatory agencies, and health care organizations.
The questionnaire portion of the kit includes an initial consent form for the parent or guardian to complete. The questionnaire also provides background information on the study and possible side effects associated with the medication. Also included therein is a form for providing relevant patient and family histories. More importantly, the questionnaire, in this case includes a portion for the weekly input by parents/guardians and school observers for answers to questions relating to the drug evaluation. Physician questionnaires are similarly arranged.
The kit described in Example 1 is used to again evaluate the usefulness of methylphenidate (Ritalin) treatment in a hyperactive child except that all interested parties have the benefit of a set of data generated from a pool of patients having a similar need for treatment. […]

hypertensive person = assay: double-blind single-patient trial of sustained release verapamil vs sustained release propranolol; assay type: in vivo, human; conditions: for mean systolic blood pressure increases: verapamil 240 mg once daily vs propranolol 180 mg once daily; for mean systolic blood pressure increases / mean diastolic pressure: little difference between drugs; for mean diastolic pressure: throughout the six week trial
Experimental: In this example, the validity of using a sustained release formulation of verapamil 240 mg once daily as a therapeutic alternative to sustained release propranolol 180 mg once daily in a hypertensive person is shown. The trial during which the two medications are randomly administered in a double-blind manner is six weeks. The questionnaire used is set up in a manner similar to that described in above examples except that the questions elicit information related to the disease of hypertension. Blood pressure and adverse event reports are taken daily by the patient. […] Sleepiness is reported at equal rates for both drugs. All values are statistically insignificant and the therapeutic alternative selection is objectively validated.

[5] = pool of 50 patients who continue treatment

In the case of CCOC(=O)N1CCC(=C2c3ccc(Cl)cc3CCc3cccnc32)CC1 [CL, loratidine], the incidence of sedation [1] was 2 on a 3 point scale.
For CN(C)CCC(c1ccc(Cl)cc1)c1ccccn1 (stereo not shown) [CM, chlorpheniramine maleate], the “patient's symptoms on reevaluation” value ([1]; 6 and 12 months post-initiation of CM treatment) was “well maintained”, the incidence of sedation [1] was 2 on a 3 point scale and the “most bothersome symptom, sneezing” value ([1]; person, dust mite protein allergy) was “similarly and effectively controlled”. The patients well maintained [2] was 37 of the 40.
In the case of COc1ccc2c3c1O[C@H]1[C@@H](O)C=C[C@H]4[C@@H](C2)N(C)CC[C@@]341 [codeine], the “difference of liking score vs placebo” value (individual patient) was 2 units, the liking score (individual patient) was 3 out of 5 and the became addicted ([3]; Caucasian female patients 30 to 40 years with 0 unit difference) was 10 out of 1250. For the same compound, the became addicted ([3]; black male patients 40 to 50 years old with 2-unit difference, treated with codeine) was 25 out of 600 and the became addicted ([3]; similar patients with 3 unit differences) was 50 out of 110.
In the case of CN1C(=O)CN=C(c2ccccc2)c2cc(Cl)ccc21 [diazepam], the “difference of liking score vs placebo” value (individual patient) was 0 units, the liking score (individual patient) was 4 out of 5 and the “level of addiction on follow-up of similar patients” value [3] was “comparatively low level of addiction”.
In the case of COC(=O)C(c1ccccc1)C1CCCCN1 (stereo not shown) [methylphenidate], the “show severe episodes of bizarre behaviors” value ([4]; patients with statistically altered sleep patterns on SPAS testing, within two months) was 90%, the “patients experience grand mal seizures” value ([4]; patients with statistically altered sleep patterns, within two months) was “two” and the “Sleep Patterns: have been statistically altered” value [4, 5] was 50%. The “Sleep Patterns: have not been statistically altered” value [4, 5] was 50%, the “Teacher Comments: corroborate improved attention span” value [4, 5] was 80% and the “Teacher Comments: do not corroborate improved attention span” value [4, 5] was 20%. The “Attention Span: have substantial improvement” value ([4]; pool of 50 patients who continue treatment, 40 mg daily) was 100%, the “patient's attention span” value (hyperactive child; 40 mg daily as 10 mg four times daily, periods when methylphenidate is given vs placebo) was “improved substantially” and the teacher comments (hyperactive child; during methylphenidate dosing periods) was “corroborate improved attention span”. The sleep patterns (hyperactive child; during methylphenidate periods, 40 mg daily) was “statistically altered”.
With CN1CCCC1c1cccnc1 (stereo not shown) [nicotine] the “difference of liking score vs placebo” value (individual patient) was 3 units, the liking score (individual patient) was 4 out of 5 and the are smokers ([3]; female Caucasian patients 15 to 17 years old with similar 3-unit difference) was 820 out of 975.
With CC(C)NCC(O)COc1cccc2ccccc12 (stereo not shown) [propranolol] the sleepiness reported (hypertensive person; human, in vivo) was “equal rates”, the “mean systolic blood pressure increases” value (hypertensive person; six week trial) was 3% and the mean diastolic pressure (hypertensive person) was “essentially stable”.
C=CCC1(C(C)CCC)C(=O)NC(=O)NC1=O (stereo not shown) [secobarbital] was tested, and the “difference in liking scores, diazepam compared to secobarbital” value (individual patient; same patient) was “greater addiction potential” and the “level of addiction on follow-up of similar patients” value [3] was “high level of addiction”.
With COc1ccc(CCN(C)CCCC(C#N)(c2ccc(OC)c(OC)c2)C(C)C)cc1OC (stereo not shown) [verapamil] the sleepiness reported (hypertensive person; six week trial, both drugs) was “equal rates”, the “mean systolic blood pressure increases” value (hypertensive person; six week trial) was 3% and the mean diastolic pressure (hypertensive person) was “essentially stable”.

— patent US20020032581A1, “Single-patient drug trials used with accumulated database: risk of habituation” (priority 2000, published 2002)
